Measurements from patent US20080090805A1, “CB-1 MODULATING COMPOUNDS AND THEIR USE” (ACADIA PHARMACEUTICALS INC., priority 2005, published 2008).
Where two headings read alike, the source gives them in different places.

Biological target: CB1 (mutant) (Homo sapiens, UniProt P21554)
Test: R-SAT functional receptor assay, CB1 (mutant, truncated after amino acid 417)
Format: cell-based
Settings: R-SAT CB1; for IC50 / pIC50: receptor form (mutant or wild-type) not stated; for Emax / % Inhibition: receptor form not stated, relative to SR141716 (100%); for Emax: read-out: % Inhibition
[1] = Appendix A, read-out: pIC50 (converted)

Chain of CB1 (mutant) (P21554 1-417, change not shown): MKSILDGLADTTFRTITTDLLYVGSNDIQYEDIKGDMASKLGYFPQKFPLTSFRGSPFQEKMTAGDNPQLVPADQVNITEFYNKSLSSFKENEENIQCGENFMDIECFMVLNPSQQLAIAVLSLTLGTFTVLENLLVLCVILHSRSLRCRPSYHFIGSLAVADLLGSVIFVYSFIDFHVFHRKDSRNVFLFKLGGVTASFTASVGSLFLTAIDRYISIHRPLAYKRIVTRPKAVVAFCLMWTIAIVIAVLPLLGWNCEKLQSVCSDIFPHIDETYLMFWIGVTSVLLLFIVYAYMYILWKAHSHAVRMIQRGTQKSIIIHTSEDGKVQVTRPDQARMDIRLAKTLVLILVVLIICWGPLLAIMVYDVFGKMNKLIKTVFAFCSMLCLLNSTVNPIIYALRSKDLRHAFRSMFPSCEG

Structure (SMILES)	IC50 [1]	Emax (Appendix A)	pIC50 (Appendix A)	IC50 (pIC50, Appendix A)	% Inhibition (Appendix A)
O=C(NCc1cccnc1)c1ccc2c(c1)N=C(NCc1ccc(Cl)cc1)c1ccccc1S2	501 nM	76%	–	–	–
O=C(NCc1ccc(F)cc1)c1ccc2c(c1)N=C(c1ccccc1F)c1ccccc1S2 [drawing 925]	15.8 nM	102%	–	–	–
Cc1csc(CNC(=O)c2ccc3c(c2)N=C(c2ccc(Cl)s2)c2ccccc2S3)c1 [drawing 655]	6.31 nM	94%	–	–	–
Cc1ccc(N2CCN(C(=O)c3ccc4c(c3)N=C(C3CCCCC3)c3ccccc3S4)CC2)c(C)c1 [drawing 896]	200 nM	103%	–	–	–
COc1cccc(C2=Nc3cc(C(=O)NCc4ccc(C)o4)ccc3Sc3ccccc32)n1 [drawing 554]	50.1 nM	84%	–	–	–
CCCC1=Nc2cc(C(=O)N3CCN(Cc4ccc5c(c4)OCO5)CC3)ccc2Sc2ccccc21	–	96%	–	–	–
O=C(c1ccc2c(c1)N=C(N1CCCCC1)c1ccccc1S2)N1CCCCC1	200 nM	89%	–	–	–
CCONC(=O)c1ccc2c(c1)N=C(c1ccc(Cl)cc1)c1ccccc1S2	63.1 nM	91%	–	–	–
CONC(=O)c1ccc2c(c1)N=C(c1ccccc1Cl)c1ccccc1S2	–	-15%	1.0	–	–
COc1cccc(C2=Nc3cc(C(=O)NC4CCC(F)(F)CC4)ccc3Sc3ccccc32)n1 [drawing 653]	–	104%	–	6.31 nM	–
O=C(NCc1cccnc1)c1ccc2c(c1)N=C(c1ccccc1Cl)c1ccccc1S2	–	72%	–	–	–
Cc1ccsc1C1=Nc2cc(C(=O)NCCCC(F)(F)F)ccc2Sc2ccccc21 [drawing 599]	3.98 nM	111%	–	–	–
CCCC1=Nc2cc(C(=O)NCCCOCC)ccc2Sc2ccccc21	50.1 nM	92%	–	–	–
CC(C)CC1=Nc2cc(C(=O)NN3CCCCC3)ccc2Sc2ccccc21	200 nM	90%	–	–	–
CC(CNC(=O)c1ccc2c(c1)N=C(N1CCCCC1)c1ccccc1S2)c1ccccc1 (stereo not shown) [drawing 1017]	25.1 nM	105%	–	–	–
O=C(NN1CCCCC1)c1ccc2c(c1)N=C(N1CCCCC1)c1ccccc1S2 [drawing 610]	50.1 nM	104%	–	–	–
CN1c2ccc(C(=O)NCc3ccc(F)cc3)cc2N=C(c2ccc(F)cc2)c2ccccc21 [drawing 752]	79.4 nM	91%	–	–	–
O=C(NC1CCCC1)c1ccc2c(c1)N=C(c1ccccn1)c1ccccc1S2	158 nM	81%	–	–	–
O=C(NCCc1ccncc1)c1ccc2c(c1)N=C(c1ccc(Cl)cc1Cl)c1ccccc1S2	316 nM	72%	–	–	–
O=C(NCCCc1ccccc1)c1ccc2c(c1)N=C(c1ccc(Cl)cc1)c1ccccc1S2 [drawing 645]	–	106%	–	5.01 nM	–
O=C(NN1CCCCC1)c1ccc2c(c1)N=C(c1ccc(F)cc1)c1ccccc1S2 [drawing 680]	–	84%	–	–	–
CC(C)CNC(=O)c1ccc2c(c1)N=C(c1ccccn1)c1ccccc1S2 [drawing 1021]	25.1 nM	96%	–	–	–
O=C(NC1CCCC1)c1ccc2c(c1)N=C(c1cccc(F)c1)c1ccccc1S2 [drawing 742]	79.4 nM	100%	–	–	–
CCCCNC(=O)c1ccc2c(c1)N=C(c1ccc(Cl)cc1Cl)c1ccccc1S2 [drawing 1165]	39.8 nM	98%	–	–	–

Structure (SMILES)	IC50 [1]	Emax (Appendix A)	pIC50 (Appendix A)	IC50 (pIC50, Appendix A)	% Inhibition (Appendix A)
O=C(NCc1cccc(Cl)c1)c1ccc2c(c1)N=C(c1ccc(Cl)cc1)c1ccccc1S2 [drawing 579]	3.16 nM	112%	–	–	–
O=C(NCCc1ccc(Cl)cc1)c1ccc2c(c1)N=C(N1CCCCC1)c1ccccc1S2 [drawing 775]	10 nM	113%	–	–	–
CC(CNC(=O)c1ccc2c(c1)N=C(c1ccc(Cl)cc1)c1cc(F)ccc1S2)c1ccccc1 (stereo not shown) [drawing 1173]	39.8 nM	110%	–	–	–
CCCC1=Nc2cc(C(=O)NCCc3ccc(Cl)cc3)ccc2Sc2ccccc21 [drawing 1003]	–	110%	–	25.1 nM	–
CCCC1=Nc2cc(C(=O)NCCN3CCCC3)ccc2Sc2ccccc21	3160 nM	138%	–	–	–
CCCCNC(=O)c1ccc2c(c1)N=C(c1ccccc1)c1ccccc1S2 [drawing 761]	10 nM	104%	–	–	–
CONC(=O)c1ccc2c(c1)N=C(c1ncccc1C)c1ccccc1S2	–	8%	1.0	–	–
CCCCNC(=O)c1ccc2c(c1)N=C(c1ccc(Cl)cc1)c1cc(Cl)ccc1S2 [drawing 556]	50.1 nM	112%	–	–	–
COCCNC(=O)c1ccc2c(c1)N=C(c1ncccc1C)c1ccccc1S2	–	-6%	1.0	–	–
CC(NC(=O)c1ccc2c(c1)N=C(C1CCCCC1)c1ccccc1S2)c1ccccc1 (stereo not shown) [drawing 674]	–	–	7.2	–	113%
CONC(=O)c1ccc2c(c1)N=C(c1ccc(Br)cc1)c1ccccc1S2	794 nM	68%	–	–	–
Cc1cccc(C2=Nc3cc(C(=O)NCc4ccc(C)o4)ccc3Sc3ccccc32)n1 [drawing 805]	10 nM	96%	–	–	–
COCCNC(=O)c1ccc2c(c1)N=C(c1ccc(Cl)s1)c1ccccc1S2 [drawing 963]	20 nM	–	–	–	95%
O=C(NCc1cccnc1)c1ccc2c(c1)N=C(c1cccc(F)c1)c1ccccc1S2 [drawing 793]	10 nM	130%	–	–	–
O=C(NCc1cccnc1)c1ccc2c(c1)N=C(c1ccc(Cl)c(Cl)c1)c1ccccc1S2 [drawing 669]	6.31 nM	107%	–	–	–
Cc1ccc(CNC(=O)c2ccc3c(c2)N=C(c2ccc(Cl)s2)c2ccccc2S3)o1 [drawing 765]	10 nM	92%	–	–	–
O=C(c1ccc2c(c1)N=C(C1CCCCC1)c1ccccc1S2)N1CCCCC1	–	26%	–	–	–
COc1ccc(C2=Nc3cc(C(=O)NC4CCCCC4)ccc3Sc3ccccc32)cc1 [drawing 1153]	39.8 nM	115%	–	–	–
C[C@@H]1CCC[C@H](C)N1NC(=O)c1ccc2c(c1)N=C(c1ccc(Cl)c(Cl)c1)c1ccccc1S2 [drawing 739]	–	114%	–	7.94 nM	–
O=C(NCc1cccc(Cl)c1)c1ccc2c(c1)N=C(c1ccc(F)cc1)c1ccccc1[S+]2[O-] (stereo not shown) [drawing 670]	–	89%	–	–	–
O=C(NCc1cccs1)c1ccc2c(c1)N=C(c1ccc(Cl)s1)c1ccccc1S2 [drawing 553]	2 nM	114%	–	–	–
CCCCNC(=O)c1ccc2c(c1)N=C(c1ccccn1)c1ccccc1S2 [drawing 907]	15.8 nM	100%	–	–	–
C[C@@H]1CCC[C@H](C)N1NC(=O)c1ccc2c(c1)N=C(c1ccc(F)cc1)c1ccccc1S2 [drawing 943]	20 nM	115%	–	–	–
CCCC1=Nc2cc(C(=O)NCc3ccc(F)cc3)ccc2Sc2ccccc21 [drawing 787]	10 nM	107%	–	–	–

Structure (SMILES)	IC50 [1]	Emax (Appendix A)	pIC50 (Appendix A)	IC50 (pIC50, Appendix A)	% Inhibition (Appendix A)
CC(C)CNC(=O)c1ccc2c(c1)N=C(c1ccc(Cl)cc1)c1ccc(F)cc1S2 [drawing 949]	20 nM	110%	–	–	–
O=C(NN1CCOCC1)c1ccc2c(c1)N=C(c1ccc(Cl)cc1)c1ccccc1S2	251 nM	75%	–	–	–
CCCCN(C)C(=O)c1ccc2c(c1)N=C(c1sccc1C)c1ccccc1S2	158 nM	72%	–	–	–
COCCNC(=O)c1ccc2c(c1)N=C(c1cccc(F)c1)c1ccccc1S2 [drawing 1025]	25.1 nM	115%	–	–	–
O=C(NN1CCCCC1)c1ccc2c(c1)N=C(c1ccc(Cl)c(F)c1)c1ccccc1S2 [drawing 991]	25.1 nM	110%	–	–	–
O=C(NN1CCCCC1)c1ccc2c(c1)N=C(c1ccc(Cl)s1)c1ccccc1S2 [drawing 823]	–	97%	–	12.6 nM	–
O=C(NCc1ccccn1)c1ccc2c(c1)N=C(c1ccc(F)cc1)c1ccccc1S2	63.1 nM	90%	–	–	–
O=C(NC1CCC(F)(F)CC1)c1ccc2c(c1)N=C(c1cccc(Cl)c1)c1ccccc1S2 [drawing 699]	–	91%	–	7.94 nM	–
O=C(NCCc1ccccn1)c1ccc2c(c1)N=C(c1ccc(Cl)cc1)c1ccccc1S2 [drawing 1005]	25.1 nM	–	–	–	92%
CC(C)CNC(=O)c1ccc2c(c1)N=C(c1ccc(Cl)c(Cl)c1)c1ccccc1S2 [drawing 643]	5.01 nM	108%	–	–	–
O=C(NCCc1ccc(Cl)cc1)c1ccc2c(c1)N=C(c1ccccc1F)c1ccccc1S2 [drawing 1085]	–	101%	–	31.6 nM	–
CCCC1=Nc2cc(C(=O)NC3CCN(C(=O)OCC)CC3)ccc2Sc2ccccc21	251 nM	77%	–	–	–
CCCCNC(=O)c1ccc2c(c1)N=C(c1ccc(F)cn1)c1ccccc1S2 [drawing 709]	7.94 nM	101%	–	–	–
CC(C)NC(=O)c1ccc2c(c1)N=C(c1ccccc1F)c1ccccc1S2	251 nM	82%	–	–	–
Cc1ccc(N2CCN(C(=O)c3ccc4c(c3)N=C(c3ccc(Cl)cc3)c3ccccc3S4)CC2)c(C)c1 [drawing 970]	316 nM	94%	–	–	–
CCCCC1=Nc2cc(C(=O)NC3CCN(C(=O)OCC)CC3)ccc2Sc2ccccc21	501 nM	96%	–	–	–
CCCC1=Nc2cc(C(=O)NCCN3CCN(c4cccc(Cl)c4)CC3)ccc2Sc2ccccc21	–	76%	–	–	–
O=C(NN1CCCCC1)c1ccc2c(c1)N=C(c1ccc(F)c(Cl)c1)c1ccccc1S2 [drawing 817]	12.6 nM	108%	–	–	–
Cc1cnc(-c2ccc3c(c2)N=C(c2ccc(Cl)cc2)c2ccccc2S3)[nH]1 [drawing 872]	200 nM	88%	–	–	–
CCCNC(=O)c1ccc2c(c1)N=C(c1ccccn1)c1ccccc1S2	39.8 nM	116%	–	–	–
CCCCNC(=O)c1cc2c(cc1O)Sc1ccccc1C(c1ccc(Cl)cc1)=N2 [drawing 552]	50.1 nM	95%	–	–	–
O=C(NCCCC(F)(F)F)c1ccc2c(c1)N=C(c1cccc(F)c1)c1ccccc1S2 [drawing 547]	1 nM	100%	–	–	–
CCCCNC(=O)c1ccc2c(c1)N=C(c1cccc(Cl)c1)c1cc(Cl)ccc1S2 [drawing 997]	25.1 nM	110%	–	–	–
